Results: ChEMBL document CHEMBL4765383, “Amphiphilic aminoglycosides with increased selectivity for inhibition of connexin 43 (Cx43) hemichannels” (Eur J Med Chem, 2020)
Blank lines part the entries; values can stand above or below the compound they belong to.

Legend:
[1] = Selectivity ratio of IC50 for inhibition of human Cx43 to IC50 for inhibition of human Cx26
[2] = molecular target: Gap junction beta-2 protein (Homo sapiens) (UniProt P29033); experiment: Inhibition of human Cx26 expressed in kanamycin-resistant Escherichia coli LB2003 cells in medium containing […] K+ and 500 uM IPTG by measuring cell growth at 15 uM after 18 hrs by growth complementation assay; design: scale not given: the % may be the effect or the level left
[3] = molecular target: Gap junction beta-2 protein (Homo sapiens) (UniProt P29033); experiment: Inhibition of human Cx26 expressed in kanamycin-resistant Escherichia coli LB2003 cells in medium containing […] K+ and 500 uM IPTG by measuring cell growth at 50 uM after 18 hrs by growth complementation assay; design: scale not given: the % may be the effect or the level left
[4] = molecular target: Gap junction alpha-1 protein (Homo sapiens) (UniProt P17302); experiment: Inhibition of human Cx43 expressed in kanamycin-resistant Escherichia coli LB2003 cells in medium containing […] K+ and 10 uM IPTG by measuring cell growth at 15 uM after 18 hrs by growth complementation assay; design: scale not given: the % may be the effect or the level left
Gap junction alpha-1 protein (Homo sapiens), sequence (P17302 whole entry): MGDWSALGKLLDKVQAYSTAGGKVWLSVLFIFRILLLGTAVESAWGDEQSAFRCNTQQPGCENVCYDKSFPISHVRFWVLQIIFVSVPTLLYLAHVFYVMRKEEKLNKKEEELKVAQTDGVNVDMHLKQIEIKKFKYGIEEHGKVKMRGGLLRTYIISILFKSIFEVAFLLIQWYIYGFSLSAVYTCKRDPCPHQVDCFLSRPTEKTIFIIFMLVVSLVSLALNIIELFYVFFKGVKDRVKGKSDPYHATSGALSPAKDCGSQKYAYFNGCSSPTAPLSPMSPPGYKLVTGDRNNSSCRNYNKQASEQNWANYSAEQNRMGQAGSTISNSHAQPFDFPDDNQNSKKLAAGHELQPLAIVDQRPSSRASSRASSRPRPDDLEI

[5] = molecular target: Gap junction alpha-1 protein (Homo sapiens) (UniProt P17302); experiment: Inhibition of human Cx43 expressed in kanamycin-resistant Escherichia coli LB2003 cells in medium containing […] K+ and 10 uM IPTG by measuring cell growth at 50 uM after 18 hrs by growth complementation assay; design: scale not given: the % may be the effect or the level left

SMILES: Cc1ccc(COC[C@H]2O[C@H](O[C@@H]3[C@@H](O)[C@H](O[C@H]4O[C@H](CN)[C@@H](O)[C@H](O)[C@H]4O)[C@@H](N)C[C@H]3N)[C@H](O)[C@@H](N)[C@@H]2OCc2ccc(C)cc2)cc1
Selectivity ratio [1]: 1.39

SMILES: NC[C@H]1O[C@H](O[C@H]2[C@H](O)[C@@H](O[C@H]3O[C@H](COc4ccc(-c5nc6ccccc6[nH]5)cc4)[C@@H](O)[C@H](N)[C@H]3O)[C@H](N)C[C@@H]2N)[C@H](O)[C@@H](O)[C@@H]1O
Selectivity ratio [1]: 0.34 | Activity [2]: 83.1% | Activity [3]: 85.5% | Activity [4]: 43.2% | Activity [5]: 71.7%

SMILES: CCCCCCCC(=O)NC[C@H]1O[C@H](O[C@H]2[C@H](O)[C@@H](O[C@H]3O[C@H](CO)[C@@H](O)[C@H](N)[C@H]3O)[C@H](N)C[C@@H]2N)[C@H](O)[C@@H](O)[C@@H]1O
Activity [2]: 14% | Activity [3]: 25.2% | Activity [4]: 17% | Activity [5]: 37.2%

SMILES: N[C@@H]1[C@@H](O)[C@@H](O[C@@H]2[C@@H](O)[C@H](O[C@H]3O[C@H](CNC(=O)c4ccccc4-c4c5ccc(=O)cc-5oc5cc(O)ccc45)[C@@H](O)[C@H](O)[C@H]3O)[C@@H](N)C[C@H]2N)O[C@H](CO)[C@H]1O
Selectivity ratio [1]: 1.42 | Activity [2]: 22.3% | Activity [3]: 79.6% | Activity [4]: 56.8% | Activity [5]: 83.4%

SMILES: NC[C@H]1O[C@H](O[C@H]2[C@H](O)[C@@H](O[C@H]3O[C@H](COc4ccc(-c5ccccc5)cc4)[C@@H](O)[C@H](N)[C@H]3O)[C@H](N)C[C@@H]2N)[C@H](O)[C@@H](O)[C@@H]1O
Activity [2]: 46.3% | Activity [3]: 67.8% | Activity [4]: 27.3% | Activity [5]: 54.3%

SMILES: NC[C@H]1O[C@H](O[C@H]2[C@H](O)[C@@H](O[C@H]3O[C@H](COc4ccc([N+](=O)[O-])cc4)[C@@H](O)[C@H](N)[C@H]3O)[C@H](N)C[C@@H]2N)[C@H](O)[C@@H](O)[C@@H]1O
Activity [2]: 35.9% | Activity [3]: 62.6% | Activity [4]: 36.5% | Activity [5]: 49.3%

SMILES: NC[C@H]1O[C@H](O[C@H]2[C@H](O)[C@@H](O[C@H]3O[C@H](COCc4ccc(F)cc4)[C@@H](OCc4ccc(F)cc4)[C@H](N)[C@H]3O)[C@H](N)C[C@@H]2N)[C@H](O)[C@@H](O)[C@@H]1O
Selectivity ratio [1]: 0.3

SMILES: COc1ccc(COC[C@H]2O[C@H](O[C@@H]3[C@@H](O)[C@H](O[C@H]4O[C@H](CN)[C@@H](O)[C@H](O)[C@H]4O)[C@@H](N)C[C@H]3N)[C@H](O)[C@@H](N)[C@@H]2OCc2ccc(OC)cc2)cc1
Selectivity ratio [1]: 3.17

SMILES: Cc1ccc(S(=O)(=O)OC[C@H]2O[C@H](O[C@@H]3[C@@H](O)[C@H](O[C@H]4O[C@H](CN)[C@@H](O)[C@H](O)[C@H]4O)[C@@H](N)C[C@H]3N)[C@H](O)[C@@H](N)[C@@H]2O)cc1
Activity [2]: 26.8% | Activity [3]: 49.2% | Activity [4]: 38.1% | Activity [5]: 51%

SMILES: CCCCCCCCCCCC(=O)NC[C@H]1O[C@H](O[C@H]2[C@H](O)[C@@H](O[C@H]3O[C@H](CO)[C@@H](O)[C@H](N)[C@H]3O)[C@H](N)C[C@@H]2N)[C@H](O)[C@@H](O)[C@@H]1O
Selectivity ratio [1]: 6.88 | Activity [2]: 16.4% | Activity [3]: 56.2% | Activity [4]: 53.6% | Activity [5]: 70.9%

SMILES: NC[C@H]1O[C@H](O[C@H]2[C@H](O)[C@@H](O[C@H]3O[C@H](COCc4cccc(-c5ccccc5)c4)[C@@H](OCc4cccc(-c5ccccc5)c4)[C@H](N)[C@H]3O)[C@H](N)C[C@@H]2N)[C@H](O)[C@@H](O)[C@@H]1O
Selectivity ratio [1]: 1.23

SMILES: NC[C@H]1O[C@H](O[C@H]2[C@H](O)[C@@H](O[C@H]3O[C@H](COCc4ccc5ccccc5c4)[C@@H](OCc4ccc5ccccc5c4)[C@H](N)[C@H]3O)[C@H](N)C[C@@H]2N)[C@H](O)[C@@H](O)[C@@H]1O
Selectivity ratio [1]: 1.07

SMILES: CCCCCCCCCC(=O)NC[C@H]1O[C@H](O[C@H]2[C@H](O)[C@@H](O[C@H]3O[C@H](CO)[C@@H](O)[C@H](N)[C@H]3O)[C@H](N)C[C@@H]2N)[C@H](O)[C@@H](O)[C@@H]1O
Activity [2]: 16.1% | Activity [3]: 33.6% | Activity [4]: 44.4% | Activity [5]: 53.5%

SMILES: NC[C@H]1O[C@H](O[C@H]2[C@H](O)[C@@H](O[C@H]3O[C@H](COCc4ccc(Cl)cc4)[C@@H](OCc4ccc(Cl)cc4)[C@H](N)[C@H]3O)[C@H](N)C[C@@H]2N)[C@H](O)[C@@H](O)[C@@H]1O
Selectivity ratio [1]: 0.15

SMILES: NC[C@H]1O[C@H](O[C@H]2[C@H](O)[C@@H](O[C@H]3O[C@H](COc4ccccc4)[C@@H](O)[C@H](N)[C@H]3O)[C@H](N)C[C@@H]2N)[C@H](O)[C@@H](O)[C@@H]1O
Activity [2]: 14.6% | Activity [3]: 69.4% | Activity [4]: 36% | Activity [5]: 46.7%

SMILES: NC[C@H]1O[C@H](O[C@H]2[C@H](O)[C@@H](O[C@H]3O[C@H](CNC(=O)c4ccccc4-c4c5ccc(=O)cc-5oc5cc(O)ccc45)[C@@H](O)[C@H](N)[C@H]3O)[C@H](N)C[C@@H]2N)[C@H](O)[C@@H](O)[C@@H]1O
Activity [2]: 37.1% | Activity [3]: 81% | Activity [4]: 45.3% | Activity [5]: 55.1%

The remaining lines, values ahead:

Activity [2]: 4.7% | Activity [3]: 32.8% | Activity [4]: 34.1% | Activity [5]: 37.1%
SMILES: N[C@@H]1[C@@H](O)[C@@H](O[C@@H]2[C@@H](O)[C@H](O[C@H]3O[C@H](CNC(=O)c4ccc5cc(O)ccc5c4)[C@@H](O)[C@H](O)[C@H]3O)[C@@H](N)C[C@H]2N)O[C@H](CO)[C@H]1O

Activity [2]: 15.9% | Activity [3]: 36.5% | Activity [4]: 20% | Activity [5]: 34.8%
SMILES: COc1ccc(OC[C@H]2O[C@H](O[C@@H]3[C@@H](O)[C@H](O[C@H]4O[C@H](CN)[C@@H](O)[C@H](O)[C@H]4O)[C@@H](N)C[C@H]3N)[C@H](O)[C@@H](N)[C@@H]2O)cc1

Activity [2]: 8% | Activity [3]: 22.8% | Activity [4]: 25.5% | Activity [5]: 51%
SMILES: N[C@@H]1[C@@H](O)[C@@H](O[C@@H]2[C@@H](O)[C@H](O[C@H]3O[C@H](CNC(=O)c4cc(-c5ccccc5)nc5ccccc45)[C@@H](O)[C@H](O)[C@H]3O)[C@@H](N)C[C@H]2N)O[C@H](CO)[C@H]1O

Selectivity ratio [1]: 7.97 | Activity [2]: 19.3% | Activity [3]: 28.2% | Activity [4]: 63.8% | Activity [5]: 76.8%
SMILES: Cc1ccc(OC[C@H]2O[C@H](O[C@@H]3[C@@H](O)[C@H](O[C@H]4O[C@H](CN)[C@@H](O)[C@H](O)[C@H]4O)[C@@H](N)C[C@H]3N)[C@H](O)[C@@H](N)[C@@H]2O)cc1

Selectivity ratio [1]: 1.93 | Activity [2]: 44.4% | Activity [3]: 69.5% | Activity [4]: 50.3% | Activity [5]: 68.3%
SMILES: NC[C@H]1O[C@H](O[C@H]2[C@H](O)[C@@H](O[C@H]3O[C@H](COc4ccc(Cl)cc4)[C@@H](O)[C@H](N)[C@H]3O)[C@H](N)C[C@@H]2N)[C@H](O)[C@@H](O)[C@@H]1O

Selectivity ratio [1]: 2.16 | Activity [2]: 36.9% | Activity [3]: 79.2% | Activity [4]: 52.2% | Activity [5]: 69.6%
SMILES: N[C@@H]1[C@@H](O)[C@@H](O[C@@H]2[C@@H](O)[C@H](O[C@H]3O[C@H](CNC(=O)CCCc4cc5ccc6cccc7ccc(c4)c5c67)[C@@H](O)[C@H](O)[C@H]3O)[C@@H](N)C[C@H]2N)O[C@H](CO)[C@H]1O

Activity [2]: 22.5% | Activity [3]: 34.3% | Activity [4]: 18.5% | Activity [5]: 36%
SMILES: CCCCCCC(=O)NC[C@H]1O[C@H](O[C@H]2[C@H](O)[C@@H](O[C@H]3O[C@H](CO)[C@@H](O)[C@H](N)[C@H]3O)[C@H](N)C[C@@H]2N)[C@H](O)[C@@H](O)[C@@H]1O

Activity [2]: 15.1% | Activity [3]: 27.9% | Activity [4]: 42.1% | Activity [5]: 45.1%
SMILES: COc1ccc2cc(C(=O)NC[C@H]3O[C@H](O[C@H]4[C@H](O)[C@@H](O[C@H]5O[C@H](CO)[C@@H](O)[C@H](N)[C@H]5O)[C@H](N)C[C@@H]4N)[C@H](O)[C@@H](O)[C@@H]3O)ccc2c1
